Data published in patent US5081131A, “Omega-((hetero)alkyl)benz(cd)-indol-2-amines” (American Cyanamid Company, priority 1988, dated 1992).
Counter-ions that a name gives are not always drawn.

What was measured:
[1] = biological target: T1, thromboxane synthetase enzyme (Rattus norvegicus, UniProt P49430); experiment: Thromboxane synthetase enzyme inhibition (TXB2 formation in washed platelets, RIA); assay type: cell-based, spontaneously hypertensive rat; details: 1×10^-4 Molar, SHR platelets, 10 min at 37° C.; for inhibition at 100 µM: read-out: % Inhibition (Thromboxane Synthetase Enzyme Inhibition)
T1 construct: endogenous in cells; host or cells: washed platelets from arterial blood of male Okamoto-Aoki spontaneously hypertensive rats (animals from Taconic Farms, Germantown, N.Y.)
T1 sequence (P49430 1-533): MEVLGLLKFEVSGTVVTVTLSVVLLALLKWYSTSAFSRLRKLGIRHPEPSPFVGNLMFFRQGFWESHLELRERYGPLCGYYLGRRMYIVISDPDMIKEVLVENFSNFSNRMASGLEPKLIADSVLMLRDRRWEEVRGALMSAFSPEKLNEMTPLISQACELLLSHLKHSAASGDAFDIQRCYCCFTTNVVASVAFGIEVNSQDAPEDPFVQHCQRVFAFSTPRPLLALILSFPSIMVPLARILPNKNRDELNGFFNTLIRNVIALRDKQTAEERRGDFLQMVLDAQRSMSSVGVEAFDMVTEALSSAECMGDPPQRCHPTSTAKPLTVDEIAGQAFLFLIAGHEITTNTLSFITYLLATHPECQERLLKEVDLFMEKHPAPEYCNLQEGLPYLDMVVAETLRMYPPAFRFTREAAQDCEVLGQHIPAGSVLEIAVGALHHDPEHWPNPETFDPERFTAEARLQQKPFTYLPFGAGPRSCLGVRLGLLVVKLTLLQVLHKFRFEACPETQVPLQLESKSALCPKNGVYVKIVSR
Protocol: The blood was diluted with 3 ml cold saline and centrifuged at room temperature for 15 min at 468×g. The platelet rich plasma (PRP) was separated. The platelets were isolated by certrifuging the PRP for 10 minutes at 1060×g and washed in 4 ml cold oxygenated Krebs phosphate buffer, pH 7.4. The chilled platelets recovered from centrifuging at 800×g for 10 minutes were resuspended in oxygenated Krebs phosphate buffer and diluted to contain 4.0-6.0×10^4 platelets/micro-liters. The inhibition of TX formation was studied by determining the concentration of thromboxane B2 (TXB2), the stable hydrolysis product of TXA2. Assay samples prepared on ice, contained 200 micro-liters platelet suspension, 50 micro-liters saline, and 50 micro-liters […] (saline) or drug under study. The test drug (0.003 mole) was dissolved in 5 ml of saline. […] The assay samples were incubated for 10 minutes at 37° C. in a metabolic shaker at about 60 rpm. The reaction was terminated by immersing the tubes in an ice bath and adding 50 micro-liters of 0.5M citric acid. The samples were centrifuged for 10 minutes at 2000 rpm at 4° C., and the supernatants were decanted.

[2] = system: spontaneously hypertensive rats; experiment: Hypotensive activity in spontaneously hypertensive rats (MABP); assay type: in vivo, rat (Okamoto strain); details: SHR, gavage, two doses of 10 mg/kg or less 24 h apart, MABP at 28 h; average baseline 160±1.5 mm Hg
Protocol: The novel compounds of the present invention are active hypotensive agents and were tested for hypotensive activity by the method of P. S. Chan and D. Poorvin, Clinical and Experimental Hypertension, 1 (6), 817-830 (1979). Male, 16 week old, spontaneously hypertensive rats of the Okamoto strain, from Taconic Farms, Germantown, N.Y., having an average mean arterial blood pressure of 160±1.5 mm of mercury, were used in the test. One to 4 rats were used per test compound. A rat was dosed by gavage with a test compound, suspended in 2% pre-boiled starch at a concentration of 50 mg/ml, at a doses of 10 mg/kg of body weight or less, with 0.9% sodium chloride loading at a dose of 25 ml/kg of body weight. A second identical dose of the test compound, without sodium chloride loading was given 24 hours later. At 28 hours after initial dose the mean arterial blood pressure (MABP) was measured. The procedure was repeated in a second and third rat when necessary.

Row | Compound | inhibition at 100 µM [1] | % Inhibition (Thromboxane Synthetase Enzyme Inhibition) [1] | Avg. MABP in mm Hg (No. of Rats) [2]
1 | CC(CCCNC1=Nc2cccc3cccc1c23)n1ccnc1.O=C(O)/C=C/C(=O)O (stereo not drawn) [N-(4-(1H-imidazol-1-yl)pentyl)benz(cd)indol-2-amine, fumarate] | 99% |  | 97 mm Hg
2 | O=C(O)/C=C/C(=O)O.c1ccc(OCCNC2=Nc3cccc4cccc2c34)nc1 [N-(2-(2-Pyridinyloxy)ethyl)benz(cd)indol-2-amine fumarate] | 88% |  | 140 mm Hg
3 | Clc1cc(Cl)c2cccc3c2c1N=C3NCCCCn1ccnc1 [6,8-Dichloro-N-(4-(1H-imidazol-1-yl)butyl)benz(cd)indol-2-amine] | 99% |  | 115 mm Hg
4 | CC(CNC1=Nc2cccc3cccc1c23)Cc1cccnc1.O=C(O)/C=C/C(=O)O (stereo not drawn) [N-(2-Methyl-3-(3-pyridinyl)propyl)benz(cd)indol-2-amine, fumarate] | 99% |  | 124 mm Hg
5 | O=C(O)/C=C/C(=O)O.c1ccc(CCNC2=Nc3cccc4cccc2c34)nc1 [N-(2-(2-Pyridinyl)ethyl)benz(cd)indol-2-amine, fumarate] | 94% |  | 137 mm Hg
6 | O=C(O)/C=C/C(=O)O.c1cncc(CCCNC2=Nc3cccc4cccc2c34)c1 [N-(3-(3-Pyridinyl)propyl)benz(cd)indol-2-amine, fumarate] | 97% |  | 93 mm Hg
7 | O=C(O)/C=C/C(=O)O.c1csc(CNC2=Nc3cccc4cccc2c34)c1 [N-(2-Thienylmethyl)benz(cd)indol-2-amine, fumarate] | 93% |  | 141 mm Hg
8 | O=C(O)/C=C/C(=O)O.c1cc2c3c(cccc3c1)C(NCCCCCn1ccnc1)=N2 [N-(5-(1H-imidazol-1-yl)pentyl)benz(cd)indol-2-amine, fumarate] | 95% |  | 111 mm Hg
9 | O=C(O)/C=C/C(=O)O.c1coc(CNC2=Nc3cccc4cccc2c34)c1 [N-(2-Furanylmethyl)benz(cd)indol-2-amine fumarate] | 93% |  | 142 mm Hg
10 | Brc1ccc2c3c(cccc13)C(NCCCCc1cccnc1)=N2 [6-Bromo-N-(4-(3-pyridinyl)butyl)benz(cd)indol-2-amine sesqui-fumarate] | 92% |  | 110 mm Hg
11 | Clc1cc(Cl)c2cccc3c2c1N=C3NCCCn1ccnc1 [6,8-Dichloro-N-(3-(1H-imidazol-1-yl)propyl)benz(cd)indol-2-amine] | 97% |  | 102 mm Hg
12 | Brc1ccc2c3c(cccc13)C(NCCCCn1ccnc1)=N2 [6-Bromo-N-(4-(1H-imidazol-1-yl)butyl)benz(cd)indol-2-amine] | 98% |  | 120 mm Hg
13 | O=C(O)/C=C/C(=O)O.c1cc2c3c(cccc3c1)C(NCCCn1cnc3ccccc31)=N2 [N-(3-(1H-benzimidazol-1-yl)propyl)benz(cd)indol-2-amine, fumarate] |  | 90% | 123 mm Hg
14 | C(=C/Cn1ccnc1)/CNC1=Nc2cccc3cccc1c23.Cl.Cl [(Z)-N-(4-(1H-imidazol-1-yl)-2-butenyl)benz(cd)indol-2-amine, dihydrochloride] | 97% |  | 77 mm Hg
15 | O=C(O)/C=C/C(=O)O.c1cncc(OCCCNC2=Nc3cccc4cccc2c34)c1 [N-(3-(3-Pyridinyloxy)propyl)benz(cd)indol-2-amine, fumarate] | 94% |  | 116 mm Hg
16 | Brc1ccc2c3c(cccc13)C(NCCCn1ccnc1)=N2 [6-Bromo-N-(3-(1H-imidazol-l-yl)propyl)benz(cd)indol-2-amine, dihydrochloride] | 85% |  | 117 mm Hg
17 | Clc1cc(Cl)c2cccc3c2c1N=C3NCCCCCCCCCCn1ccnc1 [6,8-Dichloro-N-(10-(1H-imidazol-1-yl)decyl)benz(cd)indol-2-amine] | 96% |  | 121 mm Hg
18 | O=C(O)/C=C/C(=O)O.c1cc2c3c(cccc3c1)C(NCc1ccc(Cn3ccnc3)cc1)=N2 [N-((4-(1H-imidazol-1-ylmethyl)phenyl)methyl)benz(cd)indol-2-amine, fumarate] | 100% |  | 121 mm Hg

Second part, led by results:

Row | inhibition at 100 µM [1] | % Inhibition (Thromboxane Synthetase Enzyme Inhibition) [1] | Compound | Avg. MABP in mm Hg (No. of Rats) [2]
19 | 93% |  | COc1ccccc1C(=O)N(CCCCn1ccnc1)C1=Nc2cccc3cccc1c23 [N-Benz(cd)indol-2-yl-N-(4-(1H-imidazol-1-yl)butyl)-2-methoxybenzamide] | 76 mm Hg
20 | 89% |  | c1ccc(CCCCNC2=Nc3cccc4cccc2c34)nc1 [N-(4-(2-Pyridinyl)butyl)benz(cd)indol-2-amine, sesqui-fumarate] | 106 mm Hg
21 | 97% |  | c1cc2c3c(cccc3c1)C(NCc1ccncc1)=N2 [N-(4-Pyridinylmethyl)benz(cd)indol-2-amine, sesqui-fumarate] | 90 mm Hg
22 | 100% |  | Cl.Cl.c1cc2c3c(cccc3c1)C(NCCCCCCCCn1ccnc1)=N2 [N-(8-(1H-imidazol-1-yl)octyl)benz(cd)indol-2-amine, dihydrochloride] | 111 mm Hg
23 | 79% |  | Cc1ccc(S(=O)(=O)Nc2ccc3c4c(cccc24)C(NCCCCn2ccnc2)=N3)cc1 [monoacetate] | 125 mm Hg
24 |  | 100% | C(=C/Cn1ccnc1)/CNC1=Nc2cccc3cccc1c23 [(Z)-N-(4-(1H-imidazol-1-yl)-2-butenyl)benz(cd)indol-2-amine, hydriodide] | 106 mm Hg
25 | 95% |  | CC(CNC1=Nc2cccc3cccc1c23)Cn1ccnc1.Cl.Cl (stereo not drawn) [N-(3-(1H-imidazol-1-yl)-2-methylpropyl)benz(cd)indol-2-amine, dihydrochloride] | 113 mm Hg
26 | 88% |  | c1cc2c3c(cccc3c1)C(NCCc1ccncc1)=N2 [N-(2-(4-Pyridinyl)ethyl)benz(cd)indol-2-amine, sesqui-fumarate] | 115 mm Hg
27 | 94.5% |  | O=C(c1ccccc1)N(CCCn1ccnc1)C1=Nc2cccc3cccc1c23 [N-Benz(cd)indol-2-yl-N-(3-(1H-imidazol-1-yl)propyl)benzamide] | 95 mm Hg
28 |  | 60% | c1cc2c3c(cccc3c1)C(NCCCn1cnc3ccccc31)=N2 [N-(3-(1H-benzimidazol-1-yl)propyl)benz(cd)indol-2-amine] | 124 mm Hg
29 | 92% |  | CC(CCNC1=Nc2cccc3cccc1c23)n1ccnc1 (stereo not drawn) [N-(3-(1H-imidazol-l-yl)butyl)benz(cd) indol-2-amine, dihydrochloride] | 104 mm Hg
30 | 95% |  | CC(=O)N(CCCc1cccnc1)C1=Nc2cccc3cccc1c23 [N-Benz(cd)indol-2-yl-N-(3-(3-pyridinyl)propyl)acetamide] | 85 mm Hg
31 | 71% |  | c1cc2c3c(cccc3c1)C(NCCn1ccnc1)=N2 [N-(2-(1H-imidazol-1-yl)ethyl)benz(cd)indol-2-amine] | 
32 | 98% |  | c1cc2c3c(cccc3c1)C(NCCOCCn1ccnc1)=N2 [N-(2-(2-(1H-imidazol-1-yl)ethoxy)ethyl)benz(cd)indol-2-amine bis-fumarate] | 
33 | 95% |  | CC(CCNC1=Nc2cccc3cccc1c23)c1ccncc1 (stereo not drawn) [N-(3-(4-pyridinyl)butyl)benz(cd)indol-2-amine] | 
